Experimental data: PMC3434972 (Bioorganic & medicinal chemistry letters, 2011)
Numbering of substitutions follows the chain as printed. Read-outs that look alike come from different tables or passages of the source. Each block holds one molecule with its values, some of them ahead of it.

What was measured:
[1] = biological target: T1, hM1 (Homo sapiens, UniProt P11229); experiment: hM1 antagonist calcium mobilization assay; assay type: cell-based; settings: for fold loss in potency/activity relative to ML012: hM1, versus ML012; for hM1 antagonist activity in words: highest concentration tested 30 μM
T1 sequence (P11229 1-460): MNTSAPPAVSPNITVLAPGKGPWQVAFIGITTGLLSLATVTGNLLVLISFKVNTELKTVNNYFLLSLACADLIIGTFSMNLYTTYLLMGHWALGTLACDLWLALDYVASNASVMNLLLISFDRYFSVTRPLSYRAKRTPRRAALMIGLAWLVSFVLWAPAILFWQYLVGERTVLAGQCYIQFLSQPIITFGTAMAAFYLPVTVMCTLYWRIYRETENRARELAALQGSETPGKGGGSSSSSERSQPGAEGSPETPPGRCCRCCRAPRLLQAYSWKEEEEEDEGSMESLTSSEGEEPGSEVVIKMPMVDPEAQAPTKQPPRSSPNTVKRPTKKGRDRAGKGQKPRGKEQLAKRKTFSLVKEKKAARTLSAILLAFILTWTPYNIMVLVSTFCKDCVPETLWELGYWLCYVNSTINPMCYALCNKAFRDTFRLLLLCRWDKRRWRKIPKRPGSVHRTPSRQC

[2] = biological target: T2, rM1 (Rattus norvegicus, UniProt P08482); experiment: rat M1 antagonist calcium mobilization assay; assay type: cell-based
T2 sequence (P08482 1-460): T1 sequence (P11229 1-460) with A5V, T254S, P309S, R320K, A337G, I413V

[3] = system: rat M1–5 receptors; experiment: selectivity across the rat mAChRs, calcium mobilization assay; assay type: cell-based; settings: Figure 4
[4] = rat pharmacokinetics and CNS exposure; assay type: in vivo; settings: dosed orally at 10 mg/kg
[5] = in vitro DMPK prediction of clearance; assay type: in vitro ADME
[6] = biological target: T1, hM1; settings: read-out: IC50 for ML012 previously reported; cited from earlier work
[7] = system: pilocarpine-induced seizures; settings: rodent models; cited from earlier work
[8] = system: contextual freezing; settings: at doses that reduced seizures; cited from earlier work

Compound: O=C(CCNS(=O)(=O)c1cccc2nsnc12)N1CCN(c2ccccn2)CC1 [Compound 6d]
fold loss in potency/activity relative to ML012 [1]: roughly 14 fold

Compound: O=S(=O)(NCCCN1CCN(c2ccncc2)CC1)c1cccc2nsnc12 [Compound 7]
fold loss in potency/activity relative to ML012 [1]: greater than 14 fold

Compound: CN(CCC(=O)N1CCN(c2ccncc2)CC1)S(=O)(=O)c1cccc2nsnc12 [Compound 12]
fold loss in potency/activity relative to ML012 [1]: greater than 14 fold

Compound: O=C(CCNS(=O)(=O)c1cccc2ccccc12)N1CCN(c2ccc(Br)cn2)CC1 [Compound 13i]
hM1 antagonist activity in words [1]: complete loss of activity

Compound: O=C(CCNS(=O)(=O)c1cccc2nsnc12)N1CCN(c2ccncc2)CC1 [ML012]
EC50 [2]: 240 nM
selectivity for the M1 receptor over the M2–5 subtypes [3]: selectively antagonize the M1 mAChR relative to the M2–5 mAChRs
IC50 [6]: 132 nM
effect on pilocarpine-induced seizures [7]: reduced pilocarpine-induced seizures
deficits in contextual freezing [8]: did not induce deficits in contextual freezing

The remaining lines, values ahead:

fold decrease in potency relative to 13b ([1]; hM1, versus 13b): roughly 2 fold
Compound: O=C(C(F)CNS(=O)(=O)c1cccc2nonc12)N1CCN(c2ccncc2)CC1 (stereo not shown) [Compound 9]

hM1 antagonist activity in words [1]: completely inactive
Compound: C[C@H](CC(=O)N1CCN(c2ccncc2)CC1)NS(=O)(=O)c1cccc2nonc12 [Compound 10]

fold decrease in activity relative to sulfur analog 6j ([1]; hM1, versus 6j): 3 fold
Compound: O=C(CCNS(=O)(=O)c1cccc2nonc12)N1CCN(c2ccc(Br)cn2)CC1 [Compound 13a]

IC50 [1]: 4.5 µM
fold loss in potency/activity relative to ML012 [1]: 4 fold
Compound: O=C(CCNS(=O)(=O)c1cccc2nonc12)N1CCN(c2ccncc2)CC1 [Compound 13b]

hM1 antagonist activity in words [1]: inactive
Compound: O=C(CCNS(=O)(=O)c1cccc2scnc12)N1CCN(c2ccncc2)CC1 [Compound 13j]

EC50 [2]: 180 nM
selectivity for the M1 receptor over the M2–5 subtypes [3]: very high selectivity
CNS concentrations / CNS exposure [4]: undetectable
in vitro DMPK prediction of clearance [5]: high clearance
Compound: O=C(CCNS(=O)(=O)c1cccc2ncccc12)N1CCN(c2ccncc2)CC1 [Compound 13l]
